Laboratory results as given in patent US20190211099A1, “METHODS AND COMPOSITIONS FOR TREATING CANCER WITH SIGLEC-9 ACTIVITY MODULATORS” (KING'S COLLEGE LONDON, priority 2016, published 2019).

Tests used:
[1] = tested on: monocyte derived dendritic cells; test: Differentiation of monocytes into dendritic cells; assay type: cell-based, human; conditions: MUC1-ST on day 0
Procedure: To differentiate monocytes into macrophages, CD14+ cells were plated at a concentration of 1×10^6/mL in AIM V medium (Lonza) with either 50 ng/mL recombinant human M-CSF or 50 ng/mL recombinant human GM-CSF (Bio-Techne). The cytokines were added every 3 days. The cells were incubated at 37° C., 5% CO2 for 7 days to fully differentiate, before being characterized as macrophages via phenotypic flow cytometric analysis. To differentiate monocytes into dendritic cells (moDC), CD14+ cells were plated at a concentration of 1×10^6/mL in AIM V medium with 1500 U/mL recombinant human IL-4 (Bio-Techne) and 400 U/mL human GM-CSF (Bio-Techne) for 6 days to fully differentiate, before being characterized as immature DCs via phenotypic flow cytometric analysis (Epics XL, Beckman Coulter or FACSCalibur, BD Biosciences plus WinMDI or Cellquest software). MoDCs were matured using 1 μg/mL LPS for 24 hours.
In addition, the effects of MUC1-ST on the differentiation of monocytes into dendritic cells were assessed. Briefly, monocytes were treated with MUC1-ST on day 0 and differentiated into immature dendritic cells (DCs) using IL-4 (1500 U/mL) and GM-CSF (400 U/mL) in AIM-V media for 6 days. Immature DCs were matured using 1 μg/mL LPS for 24 hours. […]

[2] = tested on: macrophages; test: Phenotype of MUC1-ST treated macrophages (CD206, CD163, PD-L1; flow cytometry); assay type: cell-based, human
Procedure: (§1) Both the cell phenotype staining and neutralization studies described in the Examples were performed using the following antibodies (all anti-human): Siglec-9 (Biotechne; 191240), Siglec-9 FITC (Biotechne; 191240), Siglec-3 (Biotechne; 6C5/2), Siglec-7 (Biotechne; AF1138), Siglec-3 FITC (BD; P67.6), Siglec-7 PE (Biolegend; 6-434), Siglec-10 PE (Biolegend; 5G6), Siglec-1 (abcam; 7D2), HLA-DR FITC (Beckman Coulter; IM0463U), CD16 FITC (Biolegend; B73.1), CD14 FITC (BD 555397), CD69 PE (Beckman Coulter; IM1943), CD25 FITC (ABX228FITC), CD86 PE (Beckman Coulter; IM2729U), CD40 FITC (BD 555588), CD83 PE (Beckman Coulter; IM2218), CD163 PE (Biolegend; GHI/61), CXCR1 FITC (BD Pharmongen; 551126), CD45 PC5 (Beckman Coulter; IM2653U), CD206 PE (ebioscience; 19.2), PD-L1 PE (Biolegend; 29E.2A3), CD36 (Santa Cruz; H-300), TGFbetaRII (Bio-Techne; AF-241), IL-6Rα (Tocilizumab; Roche. A generous gift from Dr. Valerie Corrigall). Cells were suspended in PBS+0.5% BSA (2×10^5 cells/100 μL/sample) and incubated with Abs according to the manufacturer's instructions. At least 1×10^4 events were evaluated using either Epics XL, (Beckman Coulter) or FACSCalibur (BD Biosciences) flow cytometers. Analysis was performed using either WinMDI or Cellquest software.

[3] = tested on: monocytes from PBMCs; test: MUC1-ST mediated TAM formation in monocytes from PBMCs, 7 day serum-free culture; assay type: cell-based, human
Procedure: To further explore the role of MUC1-ST in inducing a TAM-like phenotype, monocytes from PBMCs were plated in serum-free medium, incubated with MUC1-ST or PBS, and cultured for 7 days.
Intracellular calcium flux can lead to activation of the MEK/ERK pathway (Christo et al. (2015) IMMUNOL. AND CELL BIOLOGY 93: 694-704). […] Furthermore, treatment with the MEK inhibitor PD98059 at 10 μM inhibited MUC1-ST mediated TAM formation in monocytes (FIGS. 12B, 12D-12E).

[4] = tested on: SHP1; test: Western blot for phosphorylation of SHP1 in monocytes; assay type: cell-based, human; conditions: primary monocytes
Procedure: A Western blot to assay phosphorylation of SHP, which is recruited by phosphorylated Siglec-9 (Avril et al. (2004) supra) was conducted. Monocytes were incubated with MUC1-ST and lysed as described above, and the resulting lysates were separated by SDS PAGE (10% gel) before being transferred, blocked and probed with anti-SHP1 (Santa Cruz), anti-phospho SHP1 (Abcam) and appropriate secondary antibodies. Phosphorylation of SHP was not observed after MUC1-ST binding to Siglec-9 on primary monocytes (FIG. 13C) although again, phosphorylation of SHP1 was observed when Siglec-9 was activated via antibody cross-linking. No activation of SHP2 was observed.

[5] = target: T1, Siglec-9 (Homo sapiens, UniProt Q9Y336); test: Binding of biotinylated MUC1-ST to primary monocytes and monocyte-derived macrophages (flow cytometry), with or without blocking antibody; assay type: cell-based; design: endogenous in cells; host or cells: THP-1 and U937 cells; conditions: primary monocytes, monocyte-derived macrophages and AML lines
T1 sequence (Q9Y336 18-463): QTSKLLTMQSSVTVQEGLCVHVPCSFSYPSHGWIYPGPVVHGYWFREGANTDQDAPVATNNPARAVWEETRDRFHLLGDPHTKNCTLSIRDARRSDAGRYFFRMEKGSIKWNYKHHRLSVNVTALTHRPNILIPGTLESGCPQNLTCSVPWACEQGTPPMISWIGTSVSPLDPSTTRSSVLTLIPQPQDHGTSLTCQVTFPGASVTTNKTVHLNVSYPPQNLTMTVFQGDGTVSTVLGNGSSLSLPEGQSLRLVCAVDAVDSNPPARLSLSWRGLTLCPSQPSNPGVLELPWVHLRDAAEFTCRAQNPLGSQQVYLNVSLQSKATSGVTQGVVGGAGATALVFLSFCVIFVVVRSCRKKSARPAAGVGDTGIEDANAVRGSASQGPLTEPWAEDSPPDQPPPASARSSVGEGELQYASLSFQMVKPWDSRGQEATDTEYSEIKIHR
Procedure: as §1, with “Analysis was performed using either WinMDI or Cellquest software.” left out
To investigate the interaction of MUC1-ST with cells of the immune system, immune cell subsets were obtained as follows. […] Purity was assessed at >95% by staining with relevant antibodies. […]

[6] = target: T1, Siglec-9; test: MUC1-ST binding to monocytic cell lines THP-1 and U937, with or without blocking antibody; assay type: cell-based; design: endogenous in cells; host or cells: THP-1 and U937 cells; conditions: time and concentration dependent
Procedure: Unless indicated otherwise, all binding experiments using purified immune cell subsets and biotinylated purified recombinant tumor-associated MUC1 glycoforms were performed as follows. 1×10^5 isolated/differentiated cells at 5×10^5 cells per mL were incubated for 4 hours on ice with 10 μg of the appropriate biotinylated recombinant MUC1 glycoform in 0.5% BSA in PBS. Cells were washed in 0.5% BSA in PBS before 1:200 SAPE (Life Technologies) was added for 30 minutes on ice. Cells were washed and analysed by flow cytometry or fluorescent microscopy (after cytospin), using streptavidin-PE (SAPE) as a label.

**Q.** How did the “levels of CD86 (immature DCs) and of CD86 and CD83 (matured DCs)” value [1] turn out when “NeuAcα2,3Galβ1-3GalNAc linked via a Ser/Thr of MUC1 [MUC1-ST]” was run?
**A.** lower levels

**Q.** And the “expression of immune checkpoint ligand PD-L1” value [2]?
**A.** increased expression

**Q.** What about the “levels of mannose receptor (CD206) and scavenger receptor CD163” value [2] of the same substance?
**A.** increased levels

**Q.** What about the “expression of ECM component collagen type I” value [3] of the same substance?
**A.** increased expression

**Q.** And the “percentage of live macrophages in the culture” value ([3]; 7 days, serum-free medium)?
**A.** increased

**Q.** What about the “expression of TAM markers such as CD206 and PD-L1” value ([3]; flow cytometry) of the same substance?
**A.** increased expression

**Q.** What about the “phosphorylation of SHP” value [4] of the same substance?
**A.** not observed

**Q.** And the binding to cells [5]?
**A.** found to bind

**Q.** What about the binding to cells [6] of the same substance?
**A.** found to bind
